# Reference: paper PMC5622171 (Nature Communications, 2017)
# How the values were obtained:
# Experiment in all cases: KINOMEscan kinase profiling
# Assay type in all cases: binding
# [1] = target: T1, RSK3(Kin.Dom.1-N-terminal) (Homo sapiens, UniProt Q15349); details: read-out: %Inhibition by 10 μM SPA70
# T1 construct: RSK3(Kin.Dom.1-N-terminal); purchased DiscoverX (Ambit Biosciences) KINOMEscan
# Description: (§1) Kinase inhibition profiling assays. The kinase inhibition profiling assay (KINOMEscan) was performed by Ambit Biosciences, now part of DiscoveryX (Fremont, CA) in accordance with the […]
# (§2) published protocol20, 21. […] If the inhibition of a kinase was greater […]
# (§3) dilutions) starting from 30 µM.
# ULK2 = target: T2, ULK2 (Homo sapiens, UniProt Q8IYT8); details: read-out: %Inhibition by 10 μM SPA70
# T2 construct: purchased DiscoverX (Ambit Biosciences) KINOMEscan
# T2 sequence (Q8IYT8 whole entry): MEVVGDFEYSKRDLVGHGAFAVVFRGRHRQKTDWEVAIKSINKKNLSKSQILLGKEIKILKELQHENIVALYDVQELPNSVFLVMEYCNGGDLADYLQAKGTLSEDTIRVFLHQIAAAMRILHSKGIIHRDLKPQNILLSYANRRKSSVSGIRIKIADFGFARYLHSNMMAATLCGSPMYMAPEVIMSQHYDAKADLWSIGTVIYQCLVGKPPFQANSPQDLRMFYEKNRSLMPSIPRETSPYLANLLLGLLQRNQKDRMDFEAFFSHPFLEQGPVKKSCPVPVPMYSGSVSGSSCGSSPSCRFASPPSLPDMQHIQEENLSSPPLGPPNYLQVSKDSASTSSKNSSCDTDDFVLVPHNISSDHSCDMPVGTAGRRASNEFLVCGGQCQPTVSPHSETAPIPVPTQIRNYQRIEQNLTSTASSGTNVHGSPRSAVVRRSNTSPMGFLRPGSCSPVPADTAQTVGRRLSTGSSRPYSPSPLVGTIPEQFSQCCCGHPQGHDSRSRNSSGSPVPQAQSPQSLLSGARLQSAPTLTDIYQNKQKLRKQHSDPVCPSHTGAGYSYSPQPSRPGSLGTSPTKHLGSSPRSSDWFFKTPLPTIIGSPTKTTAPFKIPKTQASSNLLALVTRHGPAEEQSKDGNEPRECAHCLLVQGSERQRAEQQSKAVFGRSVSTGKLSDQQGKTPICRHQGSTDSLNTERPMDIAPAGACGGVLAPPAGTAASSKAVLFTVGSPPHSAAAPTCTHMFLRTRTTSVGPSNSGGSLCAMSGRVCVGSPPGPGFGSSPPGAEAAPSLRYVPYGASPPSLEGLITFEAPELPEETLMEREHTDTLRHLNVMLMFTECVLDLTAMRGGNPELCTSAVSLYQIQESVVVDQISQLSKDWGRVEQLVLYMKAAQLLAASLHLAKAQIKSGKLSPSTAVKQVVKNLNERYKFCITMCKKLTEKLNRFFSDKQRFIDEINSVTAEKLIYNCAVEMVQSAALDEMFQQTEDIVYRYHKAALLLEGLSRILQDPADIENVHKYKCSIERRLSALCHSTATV
# Description: as §1, §2, §3
# LKB1 = target: T3, LKB1 (Homo sapiens, UniProt Q15831); details: read-out: %Inhibition by 10 μM SPA70
# T3 construct: purchased DiscoverX (Ambit Biosciences) KINOMEscan
# T3 sequence (Q15831 whole entry): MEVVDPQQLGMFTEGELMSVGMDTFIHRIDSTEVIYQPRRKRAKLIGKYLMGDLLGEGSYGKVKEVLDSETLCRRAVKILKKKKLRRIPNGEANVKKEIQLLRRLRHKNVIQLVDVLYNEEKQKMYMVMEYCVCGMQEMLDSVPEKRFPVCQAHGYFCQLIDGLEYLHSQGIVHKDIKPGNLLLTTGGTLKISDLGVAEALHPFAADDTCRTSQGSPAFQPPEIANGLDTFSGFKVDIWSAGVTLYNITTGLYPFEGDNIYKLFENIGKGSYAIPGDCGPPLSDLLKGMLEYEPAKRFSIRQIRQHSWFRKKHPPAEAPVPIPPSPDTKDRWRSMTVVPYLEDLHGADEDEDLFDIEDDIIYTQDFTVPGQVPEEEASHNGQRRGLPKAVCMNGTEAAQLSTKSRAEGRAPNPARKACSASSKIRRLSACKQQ
# Description: as §1, §2, §3
# IKK-epsilon = target: T4, IKK-epsilon (Homo sapiens, UniProt Q14164); details: read-out: %Inhibition by 10 μM SPA70
# T4 construct: purchased DiscoverX (Ambit Biosciences) KINOMEscan
# Description: as §1, §2, §3
# DYRK2 = target: T5, DYRK2 (Homo sapiens, UniProt Q92630); details: read-out: %Inhibition by 10 μM SPA70
# T5 construct: purchased DiscoverX (Ambit Biosciences) KINOMEscan
# Description: as §1, §2, §3
# PRKCQ = target: T6, PRKCQ (Homo sapiens, UniProt Q04759); details: read-out: %Inhibition by 10 μM SPA70
# T6 construct: purchased DiscoverX (Ambit Biosciences) KINOMEscan
# Description: as §1, §2, §3
# ICK = target: T7, ICK (Homo sapiens, UniProt Q9UPZ9); details: read-out: %Inhibition by 10 μM SPA70
# T7 construct: purchased DiscoverX (Ambit Biosciences) KINOMEscan
# Description: as §1, §2, §3
# FYN = target: T8, FYN (Homo sapiens, UniProt P06241); details: read-out: %Inhibition by 10 μM SPA70
# T8 construct: purchased DiscoverX (Ambit Biosciences) KINOMEscan
# Description: as §1, §2, §3
# PCTK3 = target: T9, PCTK3 (Homo sapiens, UniProt Q07002); details: read-out: %Inhibition by 10 μM SPA70
# T9 construct: purchased DiscoverX (Ambit Biosciences) KINOMEscan
# Description: as §1, §2, §3
# ASK2 = target: T10, ASK2 (Homo sapiens, UniProt O95382); details: read-out: %Inhibition by 10 μM SPA70
# T10 construct: purchased DiscoverX (Ambit Biosciences) KINOMEscan
# Description: as §1, §2, §3
# GRK4 = target: T11, GRK4 (Homo sapiens, UniProt P32298); details: read-out: %Inhibition by 10 μM SPA70
# T11 construct: purchased DiscoverX (Ambit Biosciences) KINOMEscan
# Description: as §1, §2, §3
# IKK-alpha = target: T12, IKK-alpha (Homo sapiens, UniProt O15111); details: read-out: %Inhibition by 10 μM SPA70
# T12 construct: purchased DiscoverX (Ambit Biosciences) KINOMEscan
# Description: as §1, §2, §3
# CDK4-cyclinD1 = target: T13, CDK4-cyclinD1 (Homo sapiens, UniProt P11802); details: read-out: %Inhibition by 10 μM SPA70
# T13 construct: purchased DiscoverX (Ambit Biosciences) KINOMEscan
# Description: as §1, §2, §3
# PRP4 = target: T14, PRP4 (Homo sapiens, UniProt Q13523); details: read-out: %Inhibition by 10 μM SPA70
# T14 construct: purchased DiscoverX (Ambit Biosciences) KINOMEscan
# Description: as §1, §2, §3
# FES = target: T15, FES (Homo sapiens, UniProt P07332); details: read-out: %Inhibition by 10 μM SPA70
# T15 construct: purchased DiscoverX (Ambit Biosciences) KINOMEscan
# T15 sequence (P07332 whole entry): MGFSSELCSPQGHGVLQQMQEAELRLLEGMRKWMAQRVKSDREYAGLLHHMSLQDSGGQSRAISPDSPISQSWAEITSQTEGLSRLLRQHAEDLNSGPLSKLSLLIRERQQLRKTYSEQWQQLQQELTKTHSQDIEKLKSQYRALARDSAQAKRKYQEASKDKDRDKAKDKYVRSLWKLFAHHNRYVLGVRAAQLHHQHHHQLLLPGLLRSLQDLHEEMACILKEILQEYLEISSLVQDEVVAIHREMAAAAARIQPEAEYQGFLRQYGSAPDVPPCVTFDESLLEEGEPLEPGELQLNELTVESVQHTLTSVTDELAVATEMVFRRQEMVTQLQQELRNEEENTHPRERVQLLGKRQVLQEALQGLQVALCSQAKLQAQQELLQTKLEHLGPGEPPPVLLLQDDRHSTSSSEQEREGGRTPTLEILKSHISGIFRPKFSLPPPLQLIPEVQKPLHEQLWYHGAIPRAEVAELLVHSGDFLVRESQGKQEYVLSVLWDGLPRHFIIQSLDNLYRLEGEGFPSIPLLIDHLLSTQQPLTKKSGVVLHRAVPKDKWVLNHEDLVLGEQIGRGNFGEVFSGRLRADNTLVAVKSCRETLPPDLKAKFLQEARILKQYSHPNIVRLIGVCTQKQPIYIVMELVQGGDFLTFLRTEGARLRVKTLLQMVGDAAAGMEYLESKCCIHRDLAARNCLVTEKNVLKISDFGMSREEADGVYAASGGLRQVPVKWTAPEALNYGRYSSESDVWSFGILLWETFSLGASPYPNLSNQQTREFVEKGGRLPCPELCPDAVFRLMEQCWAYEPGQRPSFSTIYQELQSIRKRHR
# Description: as §1, §2, §3
# PHKG1 = target: T16, PHKG1 (Homo sapiens, UniProt Q16816); details: read-out: %Inhibition by 10 μM SPA70
# T16 construct: purchased DiscoverX (Ambit Biosciences) KINOMEscan
# Description: as §1, §2, §3
# NEK6 = target: T17, NEK6 (Homo sapiens, UniProt Q9HC98); details: read-out: %Inhibition by 10 μM SPA70
# T17 construct: purchased DiscoverX (Ambit Biosciences) KINOMEscan
# T17 sequence (Q9HC98 whole entry): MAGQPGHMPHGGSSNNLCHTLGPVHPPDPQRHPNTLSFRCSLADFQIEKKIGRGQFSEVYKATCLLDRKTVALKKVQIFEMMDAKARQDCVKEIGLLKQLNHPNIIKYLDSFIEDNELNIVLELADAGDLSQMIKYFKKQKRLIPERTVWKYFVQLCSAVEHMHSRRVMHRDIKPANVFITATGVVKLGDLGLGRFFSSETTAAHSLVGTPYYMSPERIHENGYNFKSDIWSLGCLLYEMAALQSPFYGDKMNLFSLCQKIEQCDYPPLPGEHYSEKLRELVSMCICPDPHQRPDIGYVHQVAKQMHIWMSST
# Description: as §1, §2, §3
# EPHA1 = target: T18, EPHA1 (Homo sapiens, UniProt P21709); details: read-out: %Inhibition by 10 μM SPA70
# T18 construct: purchased DiscoverX (Ambit Biosciences) KINOMEscan
# T18 sequence (P21709 26-976): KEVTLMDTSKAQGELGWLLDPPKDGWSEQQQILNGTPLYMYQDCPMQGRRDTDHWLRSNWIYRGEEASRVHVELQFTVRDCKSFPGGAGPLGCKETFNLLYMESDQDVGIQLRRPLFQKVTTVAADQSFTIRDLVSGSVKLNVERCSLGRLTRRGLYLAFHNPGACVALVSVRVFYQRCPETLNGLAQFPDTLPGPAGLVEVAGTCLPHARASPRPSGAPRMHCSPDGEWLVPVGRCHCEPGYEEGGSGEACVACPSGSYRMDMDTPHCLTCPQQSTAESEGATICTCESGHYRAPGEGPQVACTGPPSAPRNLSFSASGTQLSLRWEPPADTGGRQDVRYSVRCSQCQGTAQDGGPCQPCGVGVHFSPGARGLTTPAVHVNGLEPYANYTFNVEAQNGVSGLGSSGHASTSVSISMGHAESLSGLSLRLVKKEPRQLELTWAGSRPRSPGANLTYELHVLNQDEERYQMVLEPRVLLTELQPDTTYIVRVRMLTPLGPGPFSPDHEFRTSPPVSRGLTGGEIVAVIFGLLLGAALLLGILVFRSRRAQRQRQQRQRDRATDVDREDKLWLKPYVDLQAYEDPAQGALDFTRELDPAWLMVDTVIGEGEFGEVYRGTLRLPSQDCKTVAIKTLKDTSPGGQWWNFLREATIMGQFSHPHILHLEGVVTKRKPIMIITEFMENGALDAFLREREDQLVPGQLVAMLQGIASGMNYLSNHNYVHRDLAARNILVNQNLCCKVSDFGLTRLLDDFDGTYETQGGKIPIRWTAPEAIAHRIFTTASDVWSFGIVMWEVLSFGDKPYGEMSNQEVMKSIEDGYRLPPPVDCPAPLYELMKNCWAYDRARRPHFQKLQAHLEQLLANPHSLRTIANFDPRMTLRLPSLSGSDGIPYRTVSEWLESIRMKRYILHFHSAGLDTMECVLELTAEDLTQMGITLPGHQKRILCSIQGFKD
# Description: as §1, §2, §3
# MAP3K2 = target: T19, MAP3K2 (Homo sapiens, UniProt Q9Y2U5); details: read-out: %Inhibition by 10 μM SPA70
# T19 construct: purchased DiscoverX (Ambit Biosciences) KINOMEscan
# Description: as §1, §2, §3
# DMPK = target: T20, DMPK (Homo sapiens, UniProt Q09013); details: read-out: %Inhibition by 10 μM SPA70
# T20 construct: purchased DiscoverX (Ambit Biosciences) KINOMEscan
# Description: as §1, §2, §3
# JNK2 = target: T21, JNK2 (Homo sapiens, UniProt P45984)
# T21 construct: purchased DiscoverX (Ambit Biosciences) KINOMEscan
# Description: as §1, §2, §3
# ABL1-nonphosphorylated = target: T22, ABL1-nonphosphorylated (Homo sapiens, UniProt P00519); details: read-out: %Inhibition by 10 μM SPA70
# T22 construct: purchased DiscoverX (Ambit Biosciences) KINOMEscan
# Description: as §1, §2, §3
# AKT2 = target: T23, AKT2 (Homo sapiens, UniProt P31751); details: read-out: %Inhibition by 10 μM SPA70
# T23 construct: purchased DiscoverX (Ambit Biosciences) KINOMEscan
# Description: as §1, §2, §3
# IRAK4 = target: T24, IRAK4 (Homo sapiens, UniProt Q9NWZ3)
# T24 construct: purchased DiscoverX (Ambit Biosciences) KINOMEscan
# T24 sequence (Q9NWZ3 whole entry): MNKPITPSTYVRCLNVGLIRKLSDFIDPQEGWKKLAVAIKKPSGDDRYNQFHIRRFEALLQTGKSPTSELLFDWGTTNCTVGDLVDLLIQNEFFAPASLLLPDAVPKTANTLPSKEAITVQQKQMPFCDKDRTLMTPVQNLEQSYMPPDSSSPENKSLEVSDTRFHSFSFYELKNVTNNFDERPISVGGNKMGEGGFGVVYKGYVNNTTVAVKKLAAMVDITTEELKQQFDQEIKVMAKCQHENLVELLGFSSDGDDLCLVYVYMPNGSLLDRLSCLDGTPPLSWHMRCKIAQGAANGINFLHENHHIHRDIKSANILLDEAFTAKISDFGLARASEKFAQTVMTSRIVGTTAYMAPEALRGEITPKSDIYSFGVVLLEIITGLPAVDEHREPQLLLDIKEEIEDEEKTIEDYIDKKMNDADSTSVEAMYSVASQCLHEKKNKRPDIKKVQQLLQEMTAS
# Description: as §1, §2, §3
# PCTK1 = target: T25, PCTK1 (Homo sapiens, UniProt Q00536); details: read-out: %Inhibition by 10 μM SPA70
# T25 construct: purchased DiscoverX (Ambit Biosciences) KINOMEscan
# Description: as §1, §2, §3
# TRPM6 = target: T26, TRPM6 (Homo sapiens, UniProt Q9BX84); details: read-out: %Inhibition by 10 μM SPA70
# T26 construct: purchased DiscoverX (Ambit Biosciences) KINOMEscan
# Description: as §1, §2, §3
# TAOK2 = target: T27, TAOK2 (Homo sapiens, UniProt Q9UL54); details: read-out: %Inhibition by 10 μM SPA70
# T27 construct: purchased DiscoverX (Ambit Biosciences) KINOMEscan
# Description: as §1, §2, §3
# CAMK4 = target: T28, CAMK4 (Homo sapiens, UniProt Q16566); details: read-out: %Inhibition by 10 μM SPA70
# T28 construct: purchased DiscoverX (Ambit Biosciences) KINOMEscan
# Description: as §1, §2, §3
# p38-gamma = target: T29, p38-gamma (Homo sapiens, UniProt P53778); details: read-out: %Inhibition by 10 μM SPA70
# T29 construct: purchased DiscoverX (Ambit Biosciences) KINOMEscan
# Description: as §1, §2, §3
# DCAMKL2 = target: T30, DCAMKL2 (Homo sapiens, UniProt Q8N568); details: read-out: %Inhibition by 10 μM SPA70
# T30 construct: purchased DiscoverX (Ambit Biosciences) KINOMEscan
# Description: as §1, §2, §3
# PLK1 = target: T31, PLK1 (Homo sapiens, UniProt P53350); details: read-out: %Inhibition by 10 μM SPA70
# T31 construct: purchased DiscoverX (Ambit Biosciences) KINOMEscan
# Description: as §1, §2, §3
# [2] = target: T32, RSK1(Kin.Dom.1-N-terminal) (Homo sapiens, UniProt Q15418); details: read-out: %Inhibition by 10 μM SPA70
# T32 construct: RSK1(Kin.Dom.1-N-terminal); purchased DiscoverX (Ambit Biosciences) KINOMEscan
# Description: as §1, §2, §3
# LZK = target: T33, LZK (Homo sapiens, UniProt O43283)
# T33 construct: purchased DiscoverX (Ambit Biosciences) KINOMEscan
# Description: as §1, §2, §3
# PIP5K2B = target: T34, PIP5K2B (Homo sapiens, UniProt P78356); details: read-out: %Inhibition by 10 μM SPA70
# T34 construct: purchased DiscoverX (Ambit Biosciences) KINOMEscan
# Description: as §1, §2, §3
# SRPK1 = target: T35, SRPK1 (Homo sapiens, UniProt Q96SB4); details: read-out: %Inhibition by 10 μM SPA70
# T35 construct: purchased DiscoverX (Ambit Biosciences) KINOMEscan
# Description: as §1, §2, §3
# S6K1 = target: T36, S6K1 (Homo sapiens, UniProt P23443); details: read-out: %Inhibition by 10 μM SPA70
# T36 construct: purchased DiscoverX (Ambit Biosciences) KINOMEscan
# Description: as §1, §2, §3
# CDC2L2 = target: T37, CDC2L2 (Homo sapiens, UniProt Q9UQ88); details: read-out: %Inhibition by 10 μM SPA70
# T37 construct: purchased DiscoverX (Ambit Biosciences) KINOMEscan
# T37 sequence (Q9UQ88 whole entry): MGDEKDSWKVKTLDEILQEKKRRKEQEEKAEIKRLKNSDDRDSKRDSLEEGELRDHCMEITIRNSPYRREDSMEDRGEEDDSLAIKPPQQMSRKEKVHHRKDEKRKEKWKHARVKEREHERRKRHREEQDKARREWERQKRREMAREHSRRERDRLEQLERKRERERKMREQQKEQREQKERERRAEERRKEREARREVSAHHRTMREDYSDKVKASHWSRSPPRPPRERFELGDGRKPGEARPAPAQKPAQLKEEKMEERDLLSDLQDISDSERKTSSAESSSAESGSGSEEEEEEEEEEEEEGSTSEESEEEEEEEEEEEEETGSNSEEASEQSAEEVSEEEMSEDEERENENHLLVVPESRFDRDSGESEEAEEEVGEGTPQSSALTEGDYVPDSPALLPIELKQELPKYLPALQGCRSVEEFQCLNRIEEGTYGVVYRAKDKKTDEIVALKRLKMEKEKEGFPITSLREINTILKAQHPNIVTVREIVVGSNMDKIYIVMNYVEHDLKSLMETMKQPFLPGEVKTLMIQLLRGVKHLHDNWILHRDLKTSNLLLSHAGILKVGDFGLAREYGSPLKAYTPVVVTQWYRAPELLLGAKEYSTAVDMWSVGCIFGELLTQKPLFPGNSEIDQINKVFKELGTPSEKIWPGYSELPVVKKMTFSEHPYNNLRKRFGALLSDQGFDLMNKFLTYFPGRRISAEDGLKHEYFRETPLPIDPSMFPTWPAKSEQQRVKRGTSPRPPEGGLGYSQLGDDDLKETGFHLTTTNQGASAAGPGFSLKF
# Description: as §1, §2, §3
# ERBB4 = target: T38, ERBB4 (Homo sapiens, UniProt Q15303); details: read-out: %Inhibition by 10 μM SPA70
# T38 construct: purchased DiscoverX (Ambit Biosciences) KINOMEscan
# Description: as §1, §2, §3
# MELK = target: T39, MELK (Homo sapiens, UniProt Q14680); details: read-out: %Inhibition by 10 μM SPA70
# T39 construct: purchased DiscoverX (Ambit Biosciences) KINOMEscan
# Description: as §1, §2, §3
# GRK1 = target: T40, GRK1 (Homo sapiens, UniProt Q15835); details: read-out: %Inhibition by 10 μM SPA70
# T40 construct: purchased DiscoverX (Ambit Biosciences) KINOMEscan
# Description: as §1, §2, §3
# JNK1 = target: T41, JNK1 (Homo sapiens, UniProt P45983)
# T41 construct: purchased DiscoverX (Ambit Biosciences) KINOMEscan
# Description: as §1, §2, §3
smiles,measurement,setting,value
COc1ccc(OC)c(-n2nnc(S(=O)(=O)c3ccc(C(C)(C)C)cc3)c2C)c1 [SPA70],inhibition at 10 µM,[1],0%
same,inhibition at 10 µM,ULK2,0%
same,inhibition at 10 µM,LKB1,0%
same,inhibition at 10 µM,IKK-epsilon,0%
same,inhibition at 10 µM,DYRK2,12%
same,inhibition at 10 µM,PRKCQ,4%
same,inhibition at 10 µM,ICK,0%
same,inhibition at 10 µM,FYN,0%
same,inhibition at 10 µM,PCTK3,9%
same,inhibition at 10 µM,ASK2,0%
same,inhibition at 10 µM,GRK4,0%
same,inhibition at 10 µM,IKK-alpha,10%
same,inhibition at 10 µM,CDK4-cyclinD1,20%
same,inhibition at 10 µM,PRP4,0%
same,inhibition at 10 µM,FES,40%
same,inhibition at 10 µM,PHKG1,0%
same,inhibition at 10 µM,NEK6,0%
same,inhibition at 10 µM,EPHA1,0%
same,inhibition at 10 µM,MAP3K2,15%
same,inhibition at 10 µM,DMPK,0%
same,%Inhibition by 10 μM SPA70,JNK2,0%
same,inhibition at 10 µM,ABL1-nonphosphorylated,0%
same,inhibition at 10 µM,AKT2,0%
same,%Inhibition by 10 μM SPA70,IRAK4,0%
same,inhibition at 10 µM,PCTK1,4%
same,inhibition at 10 µM,TRPM6,31%
same,inhibition at 10 µM,TAOK2,21%
same,inhibition at 10 µM,CAMK4,0%
same,inhibition at 10 µM,p38-gamma,8%
same,inhibition at 10 µM,DCAMKL2,0%
same,inhibition at 10 µM,PLK1,0%
same,inhibition at 10 µM,[2],40%
same,%Inhibition by 10 μM SPA70,LZK,0%
same,inhibition at 10 µM,PIP5K2B,0%
same,inhibition at 10 µM,SRPK1,0%
same,inhibition at 10 µM,S6K1,13%
same,inhibition at 10 µM,CDC2L2,9%
same,inhibition at 10 µM,ERBB4,2%
same,inhibition at 10 µM,MELK,3%
same,inhibition at 10 µM,GRK1,0%
same,%Inhibition by 10 μM SPA70,JNK1,9%
